Assay results published in the NIST ThermoML archive (doi:10.1016/j.jct.2008.01.007).
± gives the expanded uncertainty stated by the source.

Assay: xn = mol fraction of the nth substance listed
Conditions: 101 kPa, Liquid

OCCN1CCOCC1 [4-morpholineethanol] + O
Conditions	mass density, 293.15 K [kg/m3]	mass density, 303.15 K [kg/m3]	mass density, 313.15 K [kg/m3]	mass density, 323.15 K [kg/m3]	mass density, 333.15 K [kg/m3]	viscosity, 293.15 K [mPa·s]	viscosity, 303.15 K [mPa·s]	viscosity, 313.15 K [mPa·s]	viscosity, 323.15 K [mPa·s]	viscosity, 333.15 K [mPa·s]
x1 = 0.0628	1041.44 ± 2.3	1033.11 ± 2.1	1024.47 ± 1.9	1017.66 ± 1.8	1012.27 ± 1.7	14.46 ± 1	9.721 ± 0.73	8.148 ± 0.63	6.767 ± 0.54	4.413 ± 0.39
x1 = 0.1126	1061.42 ± 2.6	1052.36 ± 2.5	1043.65 ± 2.3	1035.57 ± 2.2	1029.49 ± 2	22.98 ± 1.5	18.02 ± 1.2	13.55 ± 0.96	11.37 ± 0.83	9.233 ± 0.7
x1 = 0.1985	1078.87 ± 3	1069.04 ± 2.8	1060.34 ± 2.6	1052.34 ± 2.5	1044.12 ± 2.3	33.29 ± 2.2	27.47 ± 1.8	22.61 ± 1.5	17.84 ± 1.2	13.91 ± 0.99
x1 = 0.2466	1083.81 ± 3.1	1073.73 ± 2.9	1065.05 ± 2.7	1057.12 ± 2.6	1048.47 ± 2.4	–	–	–	–	–
x1 = 0.2887	1086.11 ± 3.1	1075.86 ± 2.9	1067.22 ± 2.8	1059.03 ± 2.6	1050.37 ± 2.5	39.28 ± 2.6	33.52 ± 2.2	28.26 ± 1.9	23.09 ± 1.6	17.82 ± 1.2
x1 = 0.3459	1087.54 ± 3.2	1077.13 ± 3	1068.55 ± 2.8	1060.61 ± 2.7	1051.89 ± 2.5	41.75 ± 2.7	35.73 ± 2.3	30.86 ± 2	25.45 ± 1.7	19.93 ± 1.4
x1 = 0.4127	1087.67 ± 3.2	1077.14 ± 3	1068.64 ± 2.8	1061.07 ± 2.7	1052.63 ± 2.5	43.23 ± 2.8	37.33 ± 2.4	31.64 ± 2.1	25.94 ± 1.7	20.12 ± 1.4
x1 = 0.4852	1086.69 ± 3.2	1076.07 ± 3	1067.65 ± 2.8	1060.28 ± 2.7	1052.39 ± 2.5	44.02 ± 2.9	37.36 ± 2.4	31.41 ± 2.1	25.4 ± 1.7	19.72 ± 1.3
x1 = 0.5438	1085.22 ± 3.2	1074.56 ± 3	1066.2 ± 2.8	1058.66 ± 2.7	1051.46 ± 2.5	–	–	–	–	–
x1 = 0.5842	1084.37 ± 3.2	1073.69 ± 3	1065.37 ± 2.8	1057.87 ± 2.7	1050.71 ± 2.5	43.33 ± 2.8	36.22 ± 2.4	29.62 ± 2	23.17 ± 1.6	18.58 ± 1.3
x1 = 0.6438	1082.81 ± 3.1	1072.11 ± 3	1063.85 ± 2.8	1056.41 ± 2.6	1049.64 ± 2.5	42.3 ± 2.7	34.92 ± 2.3	28.05 ± 1.9	21.34 ± 1.4	16.15 ± 1.1
x1 = 0.6878	1081.6 ± 3.1	1070.89 ± 2.9	1062.67 ± 2.8	1055.27 ± 2.6	1048.84 ± 2.5	–	–	–	–	–
x1 = 0.7439	1080.31 ± 3.1	1069.59 ± 2.9	1061.41 ± 2.8	1054.22 ± 2.6	1047.82 ± 2.5	39.78 ± 2.6	32.9 ± 2.2	25.58 ± 1.7	19.58 ± 1.3	14.06 ± 1
x1 = 0.8238	1078.68 ± 3.1	1068.19 ± 2.9	1060.06 ± 2.8	1053.44 ± 2.6	1047.09 ± 2.5	36.28 ± 2.4	30.25 ± 2	23.38 ± 1.6	18.01 ± 1.2	12.67 ± 0.91
x1 = 0.8846	1077.69 ± 3.1	1067.27 ± 2.9	1059.5 ± 2.8	1052.95 ± 2.7	1046.7 ± 2.5	33.61 ± 2.2	27.11 ± 1.8	22.16 ± 1.5	16.98 ± 1.2	11.26 ± 0.82
x1 = 0.9486	1077.17 ± 3.1	1066.94 ± 3	1059.41 ± 2.8	1052.79 ± 2.7	1046.54 ± 2.6	–	–	–	–	–
x1 = 1	1076.58 ± 3.1	1066.51 ± 3	1059.19 ± 2.8	1052.64 ± 2.7	1046.43 ± 2.6	26.58 ± 1.8	21.99 ± 1.5	17.32 ± 1.2	12.86 ± 0.92	8.284 ± 0.64
